# From the CheMixHub ionic liquid set
# ± gives the uncertainty stated by the source.
# Assay: xn = mol fraction of the nth substance listed
# Details: 308.15 K, 101 kPa
structure (smiles),measurement,setting,value
CCCCCCCCCCCCCCCC[n+]1ccccc1.[Cl-] + C[C@H](N)C(=O)O + O,electrical conductivity,"x2 = 0, x1 = 5.4e-07",0.000222 ± 2e-06 S/m
same,electrical conductivity,"x2 = 0, x1 = 9e-07",0.00029 ± 3e-06 S/m
same,electrical conductivity,"x2 = 0, x1 = 1.62e-06",0.0004 ± 4e-06 S/m
same,electrical conductivity,"x2 = 0, x1 = 2.34e-06",0.000465 ± 5e-06 S/m
same,electrical conductivity,"x2 = 0, x1 = 2.88e-06",0.000581 ± 6e-06 S/m
same,electrical conductivity,"x2 = 0, x1 = 3.78e-06",0.000705 ± 7e-06 S/m
same,electrical conductivity,"x2 = 0, x1 = 4.5e-06",0.000794 ± 8e-06 S/m
same,electrical conductivity,"x2 = 0, x1 = 5.59e-06",0.000937 ± 9e-06 S/m
same,electrical conductivity,"x2 = 0, x1 = 6.85e-06",0.00106 ± 1.1e-05 S/m
same,electrical conductivity,"x2 = 0, x1 = 7.93e-06",0.001222 ± 1.2e-05 S/m
same,electrical conductivity,"x2 = 0, x1 = 9.01e-06",0.001438 ± 1.4e-05 S/m
same,electrical conductivity,"x2 = 0, x1 = 1.009e-05",0.00159 ± 1.6e-05 S/m
same,electrical conductivity,"x2 = 0, x1 = 1.117e-05",0.001701 ± 1.7e-05 S/m
same,electrical conductivity,"x2 = 0, x1 = 1.442e-05",0.00209 ± 2.1e-05 S/m
same,electrical conductivity,"x2 = 0, x1 = 1.55e-05",0.00219 ± 2.2e-05 S/m
same,electrical conductivity,"x2 = 0, x1 = 1.766e-05",0.00237 ± 2.4e-05 S/m
same,electrical conductivity,"x2 = 0, x1 = 1.982e-05",0.00248 ± 2.5e-05 S/m
same,electrical conductivity,"x2 = 0, x1 = 2.18e-05",0.00259 ± 2.6e-05 S/m
same,electrical conductivity,"x2 = 0, x1 = 2.397e-05",0.00264 ± 2.6e-05 S/m
same,electrical conductivity,"x2 = 0, x1 = 2.595e-05",0.00278 ± 2.8e-05 S/m
same,electrical conductivity,"x2 = 0, x1 = 2.991e-05",0.00297 ± 3e-05 S/m
same,electrical conductivity,"x2 = 0, x1 = 3.406e-05",0.00314 ± 3.1e-05 S/m
same,electrical conductivity,"x2 = 0, x1 = 3.784e-05",0.00328 ± 3.3e-05 S/m
same,electrical conductivity,"x2 = 0, x1 = 4.162e-05",0.00342 ± 3.4e-05 S/m
same,electrical conductivity,"x2 = 0, x1 = 4.541e-05",0.00356 ± 3.6e-05 S/m
same,electrical conductivity,"x2 = 0, x1 = 4.919e-05",0.00369 ± 3.7e-05 S/m
same,electrical conductivity,"x2 = 0, x1 = 5.099e-05",0.00375 ± 3.8e-05 S/m
same,electrical conductivity,"x2 = 0, x1 = 5.982e-05",0.00403 ± 4e-05 S/m
same,electrical conductivity,"x2 = 0, x1 = 6.829e-05",0.00432 ± 4.3e-05 S/m
same,electrical conductivity,"x2 = 0, x1 = 7.64e-05",0.00454 ± 4.5e-05 S/m
same,electrical conductivity,"x2 = 0, x1 = 8.415e-05",0.00477 ± 4.8e-05 S/m
same,electrical conductivity,"x2 = 0, x1 = 9.171e-05",0.00497 ± 5e-05 S/m
same,electrical conductivity,"x2 = 0, x1 = 9.892e-05",0.00516 ± 5.2e-05 S/m
same,electrical conductivity,"x2 = 0, x1 = 0.0001058",0.00533 ± 5.3e-05 S/m
same,electrical conductivity,"x2 = 0, x1 = 0.0001124",0.0055 ± 5.5e-05 S/m
same,electrical conductivity,"x2 = 0, x1 = 0.0001189",0.00565 ± 5.7e-05 S/m
same,electrical conductivity,"x2 = 2.252e-05, x1 = 1.08e-06",0.000338 ± 3e-06 S/m
same,electrical conductivity,"x2 = 2.252e-05, x1 = 2.34e-06",0.00063 ± 6e-06 S/m
same,electrical conductivity,"x2 = 2.252e-05, x1 = 3.42e-06",0.000917 ± 9e-06 S/m
same,electrical conductivity,"x2 = 2.252e-05, x1 = 4.69e-06",0.00119 ± 1.2e-05 S/m
same,electrical conductivity,"x2 = 2.252e-05, x1 = 5.77e-06",0.00147 ± 1.5e-05 S/m
same,electrical conductivity,"x2 = 2.252e-05, x1 = 6.85e-06",0.001711 ± 1.7e-05 S/m
same,electrical conductivity,"x2 = 2.252e-05, x1 = 7.93e-06",0.001903 ± 1.9e-05 S/m
same,electrical conductivity,"x2 = 2.252e-05, x1 = 9.19e-06",0.00208 ± 2.1e-05 S/m
same,electrical conductivity,"x2 = 2.252e-05, x1 = 1.027e-05",0.00219 ± 2.2e-05 S/m
same,electrical conductivity,"x2 = 2.252e-05, x1 = 1.135e-05",0.00241 ± 2.4e-05 S/m
same,electrical conductivity,"x2 = 2.252e-05, x1 = 1.243e-05",0.00258 ± 2.6e-05 S/m
same,electrical conductivity,"x2 = 2.252e-05, x1 = 1.352e-05",0.00273 ± 2.7e-05 S/m
same,electrical conductivity,"x2 = 2.252e-05, x1 = 1.46e-05",0.00288 ± 2.9e-05 S/m
same,electrical conductivity,"x2 = 2.252e-05, x1 = 1.568e-05",0.00298 ± 3e-05 S/m
same,electrical conductivity,"x2 = 2.252e-05, x1 = 1.784e-05",0.00318 ± 3.2e-05 S/m
same,electrical conductivity,"x2 = 2.252e-05, x1 = 2e-05",0.00331 ± 3.3e-05 S/m
same,electrical conductivity,"x2 = 2.252e-05, x1 = 2.217e-05",0.00341 ± 3.4e-05 S/m
same,electrical conductivity,"x2 = 2.252e-05, x1 = 2.433e-05",0.00351 ± 3.5e-05 S/m
same,electrical conductivity,"x2 = 2.252e-05, x1 = 2.631e-05",0.00358 ± 3.6e-05 S/m
same,electrical conductivity,"x2 = 2.252e-05, x1 = 3.046e-05",0.00382 ± 3.8e-05 S/m
same,electrical conductivity,"x2 = 2.252e-05, x1 = 3.442e-05",0.00393 ± 3.9e-05 S/m
same,electrical conductivity,"x2 = 2.252e-05, x1 = 3.838e-05",0.00411 ± 4.1e-05 S/m
same,electrical conductivity,"x2 = 2.252e-05, x1 = 4.235e-05",0.00422 ± 4.2e-05 S/m
same,electrical conductivity,"x2 = 2.252e-05, x1 = 4.613e-05",0.00439 ± 4.4e-05 S/m
same,electrical conductivity,"x2 = 2.252e-05, x1 = 4.992e-05",0.00462 ± 4.6e-05 S/m
same,electrical conductivity,"x2 = 2.252e-05, x1 = 5.172e-05",0.00468 ± 4.7e-05 S/m
same,electrical conductivity,"x2 = 2.252e-05, x1 = 6.073e-05",0.00486 ± 4.9e-05 S/m
same,electrical conductivity,"x2 = 2.252e-05, x1 = 6.938e-05",0.00502 ± 5e-05 S/m
same,electrical conductivity,"x2 = 2.252e-05, x1 = 7.767e-05",0.00529 ± 5.3e-05 S/m
same,electrical conductivity,"x2 = 2.252e-05, x1 = 8.542e-05",0.00541 ± 5.4e-05 S/m
same,electrical conductivity,"x2 = 2.252e-05, x1 = 9.316e-05",0.00565 ± 5.7e-05 S/m
same,electrical conductivity,"x2 = 2.252e-05, x1 = 0.0001004",0.00593 ± 5.9e-05 S/m
same,electrical conductivity,"x2 = 2.252e-05, x1 = 0.0001074",0.00614 ± 6.1e-05 S/m
same,electrical conductivity,"x2 = 2.252e-05, x1 = 0.0001142",0.00629 ± 6.3e-05 S/m
same,electrical conductivity,"x2 = 2.252e-05, x1 = 0.0001207",0.00635 ± 6.4e-05 S/m
same,electrical conductivity,"x2 = 0.0003926, x1 = 6.912e-05",0.0057 ± 5.7e-05 S/m
same,electrical conductivity,"x2 = 0.0003926, x1 = 7.742e-05",0.00596 ± 6e-05 S/m
same,electrical conductivity,"x2 = 0.0003927, x1 = 1.08e-06",0.000964 ± 1e-05 S/m
same,electrical conductivity,"x2 = 0.0003927, x1 = 2.35e-06",0.00116 ± 1.2e-05 S/m
same,electrical conductivity,"x2 = 0.0003927, x1 = 3.43e-06",0.00138 ± 1.4e-05 S/m
same,electrical conductivity,"x2 = 0.0003927, x1 = 4.51e-06",0.001535 ± 1.5e-05 S/m
same,electrical conductivity,"x2 = 0.0003927, x1 = 5.78e-06",0.00176 ± 1.8e-05 S/m
same,electrical conductivity,"x2 = 0.0003927, x1 = 6.86e-06",0.001924 ± 1.9e-05 S/m
same,electrical conductivity,"x2 = 0.0003927, x1 = 7.94e-06",0.00212 ± 2.1e-05 S/m
same,electrical conductivity,"x2 = 0.0003927, x1 = 9.02e-06",0.00222 ± 2.2e-05 S/m
same,electrical conductivity,"x2 = 0.0003927, x1 = 1.029e-05",0.0024 ± 2.4e-05 S/m
same,electrical conductivity,"x2 = 0.0003927, x1 = 1.137e-05",0.00252 ± 2.5e-05 S/m
same,electrical conductivity,"x2 = 0.0003927, x1 = 1.245e-05",0.00271 ± 2.7e-05 S/m
same,electrical conductivity,"x2 = 0.0003927, x1 = 1.354e-05",0.00279 ± 2.8e-05 S/m
same,electrical conductivity,"x2 = 0.0003927, x1 = 1.462e-05",0.00297 ± 3e-05 S/m
same,electrical conductivity,"x2 = 0.0003927, x1 = 1.57e-05",0.00311 ± 3.1e-05 S/m
same,electrical conductivity,"x2 = 0.0003927, x1 = 1.787e-05",0.0034 ± 3.4e-05 S/m
same,electrical conductivity,"x2 = 0.0003927, x1 = 2.003e-05",0.0035 ± 3.5e-05 S/m
same,electrical conductivity,"x2 = 0.0003927, x1 = 2.22e-05",0.00366 ± 3.7e-05 S/m
same,electrical conductivity,"x2 = 0.0003927, x1 = 2.418e-05",0.00389 ± 3.9e-05 S/m
same,electrical conductivity,"x2 = 0.0003927, x1 = 2.635e-05",0.00397 ± 4e-05 S/m
same,electrical conductivity,"x2 = 0.0003927, x1 = 3.032e-05",0.00414 ± 4.1e-05 S/m
same,electrical conductivity,"x2 = 0.0003927, x1 = 3.447e-05",0.00426 ± 4.3e-05 S/m
same,electrical conductivity,"x2 = 0.0003927, x1 = 3.844e-05",0.00448 ± 4.5e-05 S/m
same,electrical conductivity,"x2 = 0.0003927, x1 = 4.223e-05",0.00473 ± 4.7e-05 S/m
same,electrical conductivity,"x2 = 0.0003927, x1 = 4.602e-05",0.00487 ± 4.9e-05 S/m
same,electrical conductivity,"x2 = 0.0003927, x1 = 4.981e-05",0.00495 ± 5e-05 S/m
same,electrical conductivity,"x2 = 0.0003927, x1 = 5.161e-05",0.00502 ± 5e-05 S/m
same,electrical conductivity,"x2 = 0.0003927, x1 = 6.064e-05",0.00532 ± 5.3e-05 S/m
